The results in this text go back to patent publication US20260027096A1, “PHD INHIBITORS” (Oxford University Innovation Limited, priority 2023, published 2026).

“Also recorded” adds a separate entry of the source.

In assay [1] the test system is HIF-1α in MOLM13, OCI-AML3, MV411 and THP-1 cells. In words: Western blot of HIF-1α in human AML cell lines. Type of assay: cell-based. The following applies: for HIF-1α protein level (immunoblot): human AML cell lines, 50 μM, 48 hrs. The method, then:
Total protein extracts (45 μg) were subjected to SDS-PAGE (NuPAGE™ 4-12% Bis-Tris Plus Gel, ThermoFisher Scientific, NP0323BOX) and then transferred onto a polyvinylidene difluoride membranes using wet transfer. Membranes were blocked in 5% milk-TBST (TBS with 0.1% Tween20) and probed with anti-HIF1-α (Novus Biological, NB100-105, 1:1000, ON at 4° C.) and anti-β-actin (Cell Signalling Technology, #3700, 1:10 000, ON at 4° C.). After incubation with appropriate horseradish peroxidase- coupled secondary antibody (Cell Signalling Technology, Anti-mouse IgG, #7076, 1:2000, 2 h at room temperature), proteins were detected with Clarity Western ECL Substrate (BioRad, #1705061) and acquired on the Amersham Imager 600 (GE Healthcare Life Sciences).
(§1) Equipped with currently available PHD inhibitors and newly generated IOX5 (68, example 46), the impact of pharmacological PHD inhibition on AML cells was assessed. […] Thus, while PHD inhibition consistently stabilises HIF-1α protein across all tested AML cell lines, HIF-2α stabilisation is variable and cell line-specific.

The test system of assay [2] is mouse iMLL-AF9- and Meis1Hoxa9-transformed AML cells. In words: Proliferation and apoptosis of murine iMLL-AF9 and Meis1Hoxa9 AML cells. The format is cell-based. The settings on record: 50 μM. The source says: (§2) Viable cells were counted by trypan blue exclusion at the indicated time points. To analyse cells undergoing apoptosis, cells were suspended in binding buffer containing PE-conjugated Annexin-V or FITC-conjugated Annexin-V, and either PI or DAPI.
To determine consequences of Daprodustat (2) and IOX5 (68, example 46) treatment on AML cells driven by the MLL-AF9→MEIS1/HOXA9 axis, mouse iMLL-AF9-and Meis1Hoxa9-transformed AML cells were employed, as well as human THP-1 cells, which harbour the MIL-AF9 translocation. […] Thus, providing compelling evidence that PHD inhibition compromises AML cells driven by the MLL-AF9→MEIS1/HOXA9 axis.

Assay [3] concerns K562, OCI-AML3, KASUMI1, MV-4-11 and MOLM13 cells. In words: Proliferation and apoptosis of human leukaemic cell lines. Type of assay: cell-based. The following applies: 50 μM.
Excerpt: as §2
To examine the impact of PHD inhibition in human leukaemia cells with other mutational backgrounds, different myeloid leukaemia cells were used, namely K562 (CML, with BCR-ABL translocation), OCL-AML3 cells (AML with DNMT3A, NRAS and NPM1 mutations), KASUMI1 cells (AML with AML-ETO translocation), MV-4-11 (AML with FLT3-ITD mutation), and MOLM13 (AML with FLT3-ITD mutation and MLL-AF9 translocation). […] Thus, multiple potent PHD inhibitors, with distinct mode of action, compromise leukaemic cells independently from their mutational status.

In assay [4] the test system is human multiple myeloma cell lines. In words: Apoptosis of multiple myeloma cell lines. Type of assay: cell-based. The following applies: 50 μM, versus the control. On the procedure:
Apoptosis of multiple human MM cell lines derived from different patients (AWO^WT, H292, KMS12, RPMI, U266 and MM.1S) treated with vehicle control, 50 μM Daprodustat (2). Data represent mean±SEM; * p<0.05; ** p<0.01, *** p<0.001.
as §2

Assay [5] concerns HIF-2α in MOLM13, OCI-AML3, MV411 and THP-1 cells. In words: Western blot of HIF-2α in human AML cell lines. The format is cell-based. The following applies: 48 hrs. The method, then: as §1
Background: Immunoblotting shows a protein as a band on a membrane.

The subject of assay [6] is murine iMLL-AF9 LSK cells in DOX-treated recipient mice. In words: iMLL-AF9 LSK cell transplantation AML model. The format is in vivo, mouse. The following applies: vs vehicle. The source says: (A) 100,000 THP-1 cells were transplanted into NBSGW recipient mice. […] (B-C) Percentage of human CD45+CD33+ and human CD45+CD14+ cells in the BM and spleen, respectively (n=4-5). (D) 100,000 OCI-AML3 cells were transplanted into NBSGW recipient mice. […] (E) Percentage of human CD45+CD33+CD14+ cells in the liver, BM and PB, respectively (n=3-7). (F) 2,000 LSK cells from iMLL-AF9;Control mice were sorted and transplanted into irradiated recipient mice. […] (H) LDA in secondary recipients transplanted with indicated doses of CD45.2+BM cells from primary recipients (n=9-10 per dose). (I) Plot showing Poisson statistical analysis. […] LSC frequencies were calculated using the ELDA software 121. […]
For primary transplantations of leukemic cells, 100,000 Meis1/Hoxa9-transduced c-Kit^+ cells or 2,000 iMLL-AF9 Lin Sca-1^+c-Kit^+ (LSK) cells were transplanted into lethally irradiated CD45.1^+/CD45.2^+ recipient mice (together with 200,000 unfractionated support CD45.1^+ wild-type BM cells). All recipient were culled upon reaching their humane endpoint as recorded in survival curves.
For secondary transplantations of leukaemic cells, 50,000 cells harvested from primary recipients were transplanted into lethally irradiated CD45.1+/CD45.2+recipient mice (together with 200,000 unfractionated support CD45.1+wild-type BM cells). […] LSC frequency was calculated using ELDA software^121. […]

The subject of assay [7] is BNIP3 protein in THP-1 cells.

`O=C(O)CNC(=O)c1c(O)n(C2CCCCC2)c(=O)n(C2CCCCC2)c1=O` [Daprodustat, daprodustat, reference compound]: the “HIF-1α protein level (immunoblot)” value in assay [1] is given as “strongly stabilised HIF-1a; also recorded: increased HIF-1α levels”. Also, the apoptosis entry is given as “induced their apoptosis” in assay [2], “induced their apoptosis” in assay [3] and “significant apoptosis” in assay [4]. The proliferation entry in assay [2] is reported as “compromised their proliferative capacity”; in assay [3] it was “consistently compromised the proliferation”.
Consider `O=C(NCC1CCC(C(F)(F)F)CC1)c1c[nH]c(-n2cccn2)cc1=O` (centres unmarked) [IOX5], for which the “HIF-1α protein level over time (western blot)” value in assay [1] (THP-1 cells, continuous treatment for 96 hours) is recorded as “substantially stabilised after 3-12 hours, its levels decreased between 24-48 hours, then increased 72-96 hours after treatment initiation”. Moreover, in assay [1], the “HIF-1α protein level (immunoblot)” value is listed as “strongly stabilised HIF-1a; also recorded: increased HIF-1α levels”. Also, the “HIF-2α protein level (western blot)” value is “did not induce any HIF-2α stabilisation” in assay [5] (MOLM13 and MV411 cells); “stabilised HIF-2α protein levels” in assay [5] (OCI-AML3 and THP-1 cells). Further, the apoptosis entry in assay [2] and in assay [3] was “induced their apoptosis” in each case. In addition, the proliferation entry in assay [2] is listed as “compromised their proliferative capacity”; in assay [3], “consistently compromised the proliferation”. Further, in assay [6] (i.p. twice daily for 14 days), the “survival of leukaemic mice” value was “significantly increased survival of leukaemic mice”. Besides, the “LSC frequency (limiting dilution assay)” value in assay [6] (secondary recipients) is recorded as “significantly decreased LSC frequency”. Further, the “BNIP3 protein (western blot)” value in assay [7] is listed as “strongly upregulated BNIP3 protein”.
